PMC10382584, “Macrocyclization of linear molecules by deep learning to facilitate macrocyclic drug candidates discovery” (Nature Communications, 2023)

Legend:
Experiment in all cases: biochemical
Set-up in all cases: DiscoveRx KINOMEscan competition binding, percent of DMSO control signal at 100 nM
Conditions in all cases: read-out: Fig. 4a / Percent Control / Compound 1; percent of DMSO control, competition binding
BIKE = molecular target: T1, BIKE (Homo sapiens, UniProt Q9NSY1)
T1 construct: gene BMP2K
T1 sequence (Q9NSY1 whole entry): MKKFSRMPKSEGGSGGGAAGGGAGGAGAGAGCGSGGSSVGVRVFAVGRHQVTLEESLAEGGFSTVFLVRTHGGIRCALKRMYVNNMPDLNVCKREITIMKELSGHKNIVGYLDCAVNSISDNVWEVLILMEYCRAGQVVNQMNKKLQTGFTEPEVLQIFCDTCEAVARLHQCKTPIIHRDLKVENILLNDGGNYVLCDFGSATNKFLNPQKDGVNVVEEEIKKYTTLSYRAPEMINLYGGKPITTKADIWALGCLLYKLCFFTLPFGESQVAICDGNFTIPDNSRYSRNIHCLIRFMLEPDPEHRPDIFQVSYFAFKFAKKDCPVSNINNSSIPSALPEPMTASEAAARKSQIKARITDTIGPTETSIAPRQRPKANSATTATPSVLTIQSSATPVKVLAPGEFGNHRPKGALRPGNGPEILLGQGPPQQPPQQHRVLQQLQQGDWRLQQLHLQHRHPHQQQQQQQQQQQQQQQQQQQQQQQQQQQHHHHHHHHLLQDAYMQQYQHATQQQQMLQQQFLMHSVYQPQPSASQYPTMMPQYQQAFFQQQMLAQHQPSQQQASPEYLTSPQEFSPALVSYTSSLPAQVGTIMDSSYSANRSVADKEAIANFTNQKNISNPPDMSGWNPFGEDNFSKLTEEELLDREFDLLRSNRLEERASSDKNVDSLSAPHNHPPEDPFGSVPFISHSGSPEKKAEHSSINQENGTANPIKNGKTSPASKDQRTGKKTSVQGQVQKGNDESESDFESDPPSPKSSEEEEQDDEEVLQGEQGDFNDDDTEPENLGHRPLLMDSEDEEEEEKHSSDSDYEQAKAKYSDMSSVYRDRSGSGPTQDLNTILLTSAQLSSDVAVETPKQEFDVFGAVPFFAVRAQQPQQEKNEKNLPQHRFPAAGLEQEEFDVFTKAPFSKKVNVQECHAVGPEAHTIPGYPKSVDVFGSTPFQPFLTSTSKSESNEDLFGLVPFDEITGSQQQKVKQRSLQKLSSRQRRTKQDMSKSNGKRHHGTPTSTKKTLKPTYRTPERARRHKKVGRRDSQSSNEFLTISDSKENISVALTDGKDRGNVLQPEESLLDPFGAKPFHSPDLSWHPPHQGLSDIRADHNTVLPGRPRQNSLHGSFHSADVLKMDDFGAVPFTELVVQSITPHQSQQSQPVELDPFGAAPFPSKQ

CDK4-cyclinD1 = molecular target: T2, CDK4-cyclinD1 (Homo sapiens, UniProt P11802)
T2 construct: cyclinD1

CSK = CSK (Homo sapiens, UniProt P41240)
DAPK3 = DAPK3 (Homo sapiens, UniProt O43293)
Chain of DAPK3 (O43293 whole entry): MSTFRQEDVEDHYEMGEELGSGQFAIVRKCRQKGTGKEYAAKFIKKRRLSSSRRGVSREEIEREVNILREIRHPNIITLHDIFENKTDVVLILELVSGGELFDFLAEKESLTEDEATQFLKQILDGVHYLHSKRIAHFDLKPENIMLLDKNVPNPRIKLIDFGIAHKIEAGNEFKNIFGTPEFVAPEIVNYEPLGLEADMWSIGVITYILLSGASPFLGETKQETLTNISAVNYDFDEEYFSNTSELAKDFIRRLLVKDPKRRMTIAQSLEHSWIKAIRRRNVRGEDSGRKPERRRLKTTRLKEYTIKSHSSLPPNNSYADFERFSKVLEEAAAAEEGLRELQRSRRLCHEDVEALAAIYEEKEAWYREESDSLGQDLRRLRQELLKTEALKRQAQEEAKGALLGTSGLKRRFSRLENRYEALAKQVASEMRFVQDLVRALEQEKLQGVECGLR

DYRK2 = DYRK2 (Homo sapiens, UniProt Q92630)
EGFR = EGFR (Homo sapiens, UniProt P00533)
EPHA7 = EPHA7 (Homo sapiens, UniProt Q15375)
ERBB3 = ERBB3 (Homo sapiens, UniProt P21860)
Chain of ERBB3 (P21860 whole entry): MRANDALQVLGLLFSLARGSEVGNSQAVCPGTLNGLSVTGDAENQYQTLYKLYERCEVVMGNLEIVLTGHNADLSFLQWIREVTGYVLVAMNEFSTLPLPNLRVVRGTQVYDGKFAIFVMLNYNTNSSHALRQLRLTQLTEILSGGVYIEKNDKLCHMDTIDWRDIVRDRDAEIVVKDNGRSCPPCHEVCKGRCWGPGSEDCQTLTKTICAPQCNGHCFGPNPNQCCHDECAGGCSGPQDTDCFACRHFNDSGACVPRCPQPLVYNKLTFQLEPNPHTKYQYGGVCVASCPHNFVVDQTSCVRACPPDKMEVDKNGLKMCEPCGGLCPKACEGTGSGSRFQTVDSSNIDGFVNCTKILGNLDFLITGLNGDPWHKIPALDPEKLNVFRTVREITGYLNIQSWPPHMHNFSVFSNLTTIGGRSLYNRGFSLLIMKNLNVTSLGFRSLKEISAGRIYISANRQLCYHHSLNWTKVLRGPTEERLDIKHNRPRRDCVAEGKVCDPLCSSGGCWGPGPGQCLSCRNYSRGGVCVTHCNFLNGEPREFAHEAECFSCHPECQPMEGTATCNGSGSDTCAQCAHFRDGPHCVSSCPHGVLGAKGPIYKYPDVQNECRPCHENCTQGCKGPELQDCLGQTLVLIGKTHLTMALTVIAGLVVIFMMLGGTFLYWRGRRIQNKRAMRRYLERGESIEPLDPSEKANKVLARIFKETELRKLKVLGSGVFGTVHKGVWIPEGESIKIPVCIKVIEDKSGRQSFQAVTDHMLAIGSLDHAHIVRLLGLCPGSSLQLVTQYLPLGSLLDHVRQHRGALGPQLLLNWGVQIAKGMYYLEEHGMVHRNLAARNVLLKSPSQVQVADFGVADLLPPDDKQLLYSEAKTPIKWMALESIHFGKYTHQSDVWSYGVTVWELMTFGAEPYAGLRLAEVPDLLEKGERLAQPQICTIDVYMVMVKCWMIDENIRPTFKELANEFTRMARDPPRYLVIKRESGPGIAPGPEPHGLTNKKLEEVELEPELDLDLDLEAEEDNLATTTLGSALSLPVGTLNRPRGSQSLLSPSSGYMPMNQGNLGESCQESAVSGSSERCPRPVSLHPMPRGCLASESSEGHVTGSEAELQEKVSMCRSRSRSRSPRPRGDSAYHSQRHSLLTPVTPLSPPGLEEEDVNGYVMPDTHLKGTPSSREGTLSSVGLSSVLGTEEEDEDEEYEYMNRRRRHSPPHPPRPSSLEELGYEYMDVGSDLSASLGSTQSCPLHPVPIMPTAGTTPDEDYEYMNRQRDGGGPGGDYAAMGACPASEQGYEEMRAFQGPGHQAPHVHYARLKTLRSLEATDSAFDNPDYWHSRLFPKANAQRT

FGFR3(G697C) = FGFR3(G697C) (Homo sapiens, UniProt P22607, G697C)
FLT1 = FLT1 (Homo sapiens, UniProt P17948)
FLT3 = FLT3 (Homo sapiens, UniProt P36888)
FLT3(D835H) = FLT3(D835H) (Homo sapiens, UniProt P36888, D835H)
[1] = molecular target: T3, JAK1(JH2domain-pseudokinase) (Homo sapiens, UniProt P23458)
T3 construct: JH2domain-pseudokinase

KIT(D816V) = KIT(D816V) (Homo sapiens, UniProt P10721, D816V)
Chain of KIT(D816V) (P10721 whole entry D816V): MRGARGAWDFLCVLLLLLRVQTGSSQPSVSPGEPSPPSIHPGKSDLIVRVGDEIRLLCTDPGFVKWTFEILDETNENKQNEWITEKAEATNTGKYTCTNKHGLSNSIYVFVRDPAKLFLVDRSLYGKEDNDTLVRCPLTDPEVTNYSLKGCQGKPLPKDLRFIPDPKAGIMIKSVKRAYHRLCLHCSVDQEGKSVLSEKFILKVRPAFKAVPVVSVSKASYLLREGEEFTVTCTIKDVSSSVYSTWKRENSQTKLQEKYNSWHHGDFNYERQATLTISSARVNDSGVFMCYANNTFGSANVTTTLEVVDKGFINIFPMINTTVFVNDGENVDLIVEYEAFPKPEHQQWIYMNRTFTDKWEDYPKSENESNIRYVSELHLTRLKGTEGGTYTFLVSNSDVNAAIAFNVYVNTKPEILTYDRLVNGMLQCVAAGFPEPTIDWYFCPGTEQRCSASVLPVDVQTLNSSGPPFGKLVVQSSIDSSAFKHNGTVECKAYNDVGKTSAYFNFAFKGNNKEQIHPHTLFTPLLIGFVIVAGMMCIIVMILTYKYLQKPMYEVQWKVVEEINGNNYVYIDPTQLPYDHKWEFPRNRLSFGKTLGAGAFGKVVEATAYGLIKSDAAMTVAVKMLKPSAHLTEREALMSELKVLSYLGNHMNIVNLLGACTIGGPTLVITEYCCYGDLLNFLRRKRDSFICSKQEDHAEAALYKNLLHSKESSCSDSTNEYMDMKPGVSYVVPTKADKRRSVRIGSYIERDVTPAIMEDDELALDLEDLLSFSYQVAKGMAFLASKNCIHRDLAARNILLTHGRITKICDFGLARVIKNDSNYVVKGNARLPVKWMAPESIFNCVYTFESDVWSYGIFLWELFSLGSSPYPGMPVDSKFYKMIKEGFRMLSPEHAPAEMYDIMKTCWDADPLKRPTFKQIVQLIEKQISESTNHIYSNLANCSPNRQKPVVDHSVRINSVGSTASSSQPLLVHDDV

LIMK2 = LIMK2 (Homo sapiens, UniProt P53671)
Chain of LIMK2 (P53671 whole entry): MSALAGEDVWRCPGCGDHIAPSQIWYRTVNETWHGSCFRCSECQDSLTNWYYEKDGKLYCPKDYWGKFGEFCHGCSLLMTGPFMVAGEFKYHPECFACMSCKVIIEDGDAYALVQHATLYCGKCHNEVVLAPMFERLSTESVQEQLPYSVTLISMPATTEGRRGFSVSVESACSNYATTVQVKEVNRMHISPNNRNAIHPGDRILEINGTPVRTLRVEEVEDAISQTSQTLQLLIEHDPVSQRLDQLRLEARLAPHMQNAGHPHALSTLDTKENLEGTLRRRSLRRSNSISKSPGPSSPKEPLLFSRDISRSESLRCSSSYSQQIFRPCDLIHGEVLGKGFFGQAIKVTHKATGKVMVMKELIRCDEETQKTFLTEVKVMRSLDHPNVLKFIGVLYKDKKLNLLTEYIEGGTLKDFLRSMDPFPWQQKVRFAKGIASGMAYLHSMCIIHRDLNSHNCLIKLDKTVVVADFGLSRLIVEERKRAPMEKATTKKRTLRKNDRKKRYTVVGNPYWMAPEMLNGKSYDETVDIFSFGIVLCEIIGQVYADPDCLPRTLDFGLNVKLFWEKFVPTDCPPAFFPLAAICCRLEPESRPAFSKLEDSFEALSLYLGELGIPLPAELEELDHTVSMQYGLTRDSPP

LKB1 = molecular target: T4, LKB1 (Homo sapiens, UniProt Q15831)
T4 construct: gene STK11

MEK2 = molecular target: T5, MEK2 (Homo sapiens, UniProt P36507)
T5 construct: gene MAP2K2

MRCKA = molecular target: T6, MRCKA (Homo sapiens, UniProt Q5VT25)
T6 construct: gene CDC42BPA

PKN1 = PKN1 (Homo sapiens, UniProt Q16512)
PRKG1 = PRKG1 (Homo sapiens, UniProt Q13976)
ROCK2 = ROCK2 (Homo sapiens, UniProt O75116)
S6K1 = molecular target: T7, S6K1 (Homo sapiens, UniProt P23443)
T7 construct: gene RPS6KB1
T7 sequence (P23443 whole entry): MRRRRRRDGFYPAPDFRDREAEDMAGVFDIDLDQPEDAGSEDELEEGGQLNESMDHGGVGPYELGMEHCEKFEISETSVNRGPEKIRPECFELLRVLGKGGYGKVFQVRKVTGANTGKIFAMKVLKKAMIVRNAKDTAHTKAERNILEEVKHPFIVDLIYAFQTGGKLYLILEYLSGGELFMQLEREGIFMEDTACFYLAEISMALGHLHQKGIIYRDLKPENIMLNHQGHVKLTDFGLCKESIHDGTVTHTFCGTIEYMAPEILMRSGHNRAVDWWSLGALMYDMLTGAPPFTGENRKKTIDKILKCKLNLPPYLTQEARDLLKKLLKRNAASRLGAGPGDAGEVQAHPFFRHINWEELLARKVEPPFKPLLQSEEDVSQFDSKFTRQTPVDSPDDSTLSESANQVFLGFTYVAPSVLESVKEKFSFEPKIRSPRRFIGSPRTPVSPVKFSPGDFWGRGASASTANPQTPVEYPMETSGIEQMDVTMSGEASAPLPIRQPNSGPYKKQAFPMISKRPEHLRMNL

SGK = molecular target: T8, SGK (Homo sapiens, UniProt O00141)
T8 construct: gene SGK1

WEE1 = WEE1 (Homo sapiens, UniProt P30291)
p38-beta = molecular target: T9, p38-beta (Homo sapiens, UniProt Q15759)
T9 construct: gene MAPK11
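Also: KINOMEscan kinase panel binding assay, signal normalized between DMSO as 100% and a positive control compound as 0%.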

Compound: Cc1cnc2nc1Nc1cccc(c1)COCc1cc(ccc1OCCN1CCCC1)N2 [Compound 1]
- remaining binding at 0.1 µM (BIKE): 47%
- remaining binding at 0.1 µM (CDK4-cyclinD1): 76%
- remaining binding at 0.1 µM (CSK): 100%
- remaining binding at 0.1 µM (DAPK3): 94%
- remaining binding at 0.1 µM (DYRK2): 90%
- remaining binding at 0.1 µM (EGFR): 81%
- remaining binding at 0.1 µM (EPHA7): 98%
- remaining binding at 0.1 µM (ERBB3): 100%
- remaining binding at 0.1 µM (FGFR3(G697C)): 94%
- remaining binding at 0.1 µM (FLT1): 100%
- remaining binding at 0.1 µM (FLT3): 36%
- remaining binding at 0.1 µM (FLT3(D835H)): 46%
- remaining binding at 0.1 µM [1]: 36%
- remaining binding at 0.1 µM (KIT(D816V)): 89%
- remaining binding at 0.1 µM (LIMK2): 92%
- remaining binding at 0.1 µM (LKB1): 100%
- remaining binding at 0.1 µM (MEK2): 72%
- remaining binding at 0.1 µM (MRCKA): 99%
- remaining binding at 0.1 µM (PKN1): 93%
- remaining binding at 0.1 µM (PRKG1): 100%
- remaining binding at 0.1 µM (ROCK2): 83%
- remaining binding at 0.1 µM (S6K1): 98%
- remaining binding at 0.1 µM (SGK): 75%
- remaining binding at 0.1 µM (WEE1): 90%
- remaining binding at 0.1 µM (p38-beta): 86%
